Counter-ions that a name gives are not always drawn. Like-named read-outs stand apart in the source and are kept apart here.
Assays:
Morphine-dependent Mice = type: in vivo, mouse; conditions: for Jumping Mice/Survived Mice, Day 1 after stopping drug / Jumping Mice/Survived Mice, Day 4 after stopping administration / Jumping Mice/Survived Mice, Day 5 of treatment: nalorphine 50 mg/kg
Description: In the first 4 days, administration was given once per 6 hours, four times a day. From day 5 through day 7, administration was given once every 8 hours, three times a day. On day 5 and day 8 of treatment, respectively, subcutaneous injections of nalorphine (50 mg/kg) were made to […].

[1] = oral methadone vs injected morphine; cited from earlier work
mice [2] = system: mice
Description: Male mice weighing 18~22 g were used for the test and divided into 3 groups (10 for every group). […] The second group of mice was given a subcutaneous injection of lappaconitine hydrobromide (8 mg/kg) for 20 days. The third group was a control group and was given physiological saline. 6 hours after being given the last dose, all the mice were given an intraperitoneal injection of 10 mg/kg allyl dromaran, and then were placed in a cone cylinder cage (diameter=30 cm, height=35 cm). The number of jumps for each mouse in 60 minutes was recorded.

mice [3] = system: mice; remark: listed apart in the source
Description: In another case, male mice weighing 18-22 g were divided into four groups (10 for every group). Two groups of mice were injected subcutaneously with lappaconitine hydrobromide 7 times within 2 days. The initial dosage was 3.5 mg/kg. Then, additional doses of 0.5 mg/kg and 1.0 mg/kg were given for every injection in each group, respectively. […] The initial dosage was 2.5 mg/kg and an escalating dose schedule of 5, 10, 20, 30, 40, 50 mg/kg was applied. The fourth group of mice was used as control group and was given physiological saline. Two hours after the last injection, all the mice of the above four groups were injected with 50 mg/kg nalorphine through the intraperitoneal cavity. The number of jumps within 10 minutes in each group of mice were recorded.

Morphine-dependent rats = type: in vivo, Wister rat
Description: Wister male rats weighing 200-250 g were divided into 3 groups (10 for each group).
II Physiological saline 2 ml/kg. sc
III Lappaconitine hydrobromide 8 mg/kg. sc

Macaca mulatta = assay: Monkey addiction test (lappaconitine); type: in vivo
Description: Three of 6 Macaca mulatta weighing 2.75~4.75 kg were subcutaneously injected with lappaconitine twice a day. The initial dosage is 0.1 mg/kg, and the dose was successively escalated to the maximum tolerance dosage, 2 mg/kg within 50 days. Then, the tolerance dosage was maintained to the 53rd day, 67th day and 92nd day, respectively. […] On day 63 and day 92, the injections of lappaconitine to the monkeys was stopped. […] On day 29, 53, 59, 67 and 90, injections to the monkeys were discontinued and after 18 hours, subcutaneous injection of nalorphine (4 or 8 mg/kg) were given.

[4] = Acute Toxicity Test, mice; type: in vivo, mouse; conditions: for LD50: mouse, in vivo, read-out: LD50 (95 % confidence limit)
[5] = Acute Toxicity Test, rats; type: in vivo, rat
[6] = Acute Toxicity Test, monkeys; type: in vivo, Macca Mulatta
[7] = type: in vivo, Wister rat; conditions: 5 or 10 mg/kg ip a day, 30 days
Description: Ten Wister rats weighing 200~250 g were divided into 2 groups (5 for each group). Each group was given intraperitoneal injection of 5 mg/kg or 10 mg/kg of lappaconitine a day, respectively. The injection was continued for 30 days. 5 wister rats of a control group were given subcutaneous injections of saline (2 ml/kg). […].

[8] = type: in vivo, Wister rat; conditions: 8 to 14 mg/kg ip escalated, until day 28
Description: Another ten Wister rats were medicated with successively escalated doses, in other words, the rats were first injected with lappaconitine (8 mg/kg) intraperitoneally. After one week with 10 mg/kg; after 2 weeks with 12 mg/kg; after 16 days with 14 mg/kg; and the last dose was maintained until day 28.

[9] = Subacute toxicity Test, monkeys; type: in vivo, Macca Mulatta
Description: Three Macca Mulatta weighing 2.75~4.75 kg were injected with lappaconitine subcutaneously twice a day. Initiated with 0.1 mg/kg, the dosage was increased successively to the highest tolerated dosage, 2 mg/kg within 50 days, and the last dosage was maintained to day 53, day 67 and day 92, respectively. The accumulated injective dosage was 196, 400 and 635 mg, respectively.

[10] = system: mice dependent on cocaine
Description: In the same way as described above, subcutaneous injection of cocaine (10 mg/kg) were given to the mice twice a day, and the injection was continued for 7 days.

[11] = system: morphine-dependent monkeys
[12] = nalorphine 50 mg/kg, 2 days: lappaconitine initial 3.5 mg/kg, total 45.5 mg/kg, 5 mice tested
[13] = 0.1 to 2 mg/kg sc twice a day, to day 53, 67 and 92
[14] = 0.45 mg/g sc (so in the source)

Which results are given for `CCN1CC2(OC(=O)c3ccccc3N)CCC(OC)C34C1C(CC23)C1(O)CC(OC)C2CC4C1(O)C2OC` (stereo not shown) [N-deacetyllappaconitine hydrobromide, N-deacetyl-lappaconitine hydrobromide]?
Jumping Mice/Survived Mice, Day 1 after stopping drug (Morphine-dependent Mice; 5 mg/g (so in the source) sc): 0/10; Jumping Mice/Survived Mice, Day 4 after stopping administration (Morphine-dependent Mice; 5 mg/g (so in the source) sc): 0/10; Jumping Mice/Survived Mice, Day 5 of treatment (Morphine-dependent Mice; 5 mg/g (so in the source) sc): 0/10

With `CCC(=O)C(CC(C)N(C)C)(c1ccccc1)c1ccccc1` (stereo not shown) [methadone] as the compound, how does the “dependence potential of 100 mg of oral methadone” value [1] read?
The value was “equivalent to that of 10 mg of injected morphine”.

Which “jumping times of each mouse” value (mice [2]; mouse, in vivo) does the source give for `CCN1CC2(OC(=O)c3ccccc3NC(C)=O)CCC(OC)C34C1C(CC23)C1(O)CC(OC)C2CC4C1(O)C2OC` (stereo not shown) [Lappaconitine] here?
Its value is 0.2.

And the “number of jumping mice” value (mice [2]; mouse, in vivo)?
Its value is 1.

And the “mice died of accumulated toxicity during the administration” value (mice [3]; initial 3.5 mg/kg, total 45.5 mg/kg in 2 days, of 10 mice)?
Its value is “five”.

What about the “jumping times of each mouse” value (mice [3]; mouse, in vivo) of the same compound?
Its value is 0.

What about the “number of jumping mice” value (mice [3]; mouse, in vivo) of the same compound?
The value was 0.

What about the “jumping times of each mouse” value (mice [3]; [12]) of the same compound?
Its value is 0.

And the “number of jumping mice” value (mice [3]; [12])?
Its value is 0.

And the “behaviour of morphine-withdrawn rats after injection” value (Morphine-dependent rats; rat, in vivo)?
Its value is “still looked suppressive”.

And the “weight change of morphine-withdrawn rats after injection” value (Morphine-dependent rats; rat, in vivo)?
Its value is “no weight increase was observed”.

And the substitution for morphine (Morphine-dependent rats; rat, in vivo, sc, 8 mg/kg)?
Its substitution for morphine is “did not act as a substitution for morphine”.

What about the “withdrawal symptoms after nalorphine” value (Macaca mulatta; 18 hours after discontinuing on day 29, 53, 59, 67 and 90, nalorphine 4 or 8 mg/kg sc) of the same compound?
Its value is “No withdrawal symptoms were observed”.

And the “behavior and appetite after stopping injections” value (Macaca mulatta; 24 hours following stop on day 63 and day 92)?
The value was “no different behavior and appetite from that before stopping injection”.

And the “dependence after long term use” value (Macaca mulatta; monkeys)?
The value was “does not cause dependence after long term use”.

And the “toxicity reactions at lethal dosage” value ([4]; lethal dosage)?
The value was “paroxysmal convulsion, respiration suppression until suffocation, and death”.

And the LD50 ([4]; intravenous injection)?
Its LD50 is 8.4 mg/kg.

And the LD50 ([4]; po, intra gasteria)?
The LD50 was 32.4 mg/kg.

And the LD50 ([4]; sc, subcutaneous injection)?
The LD50 was 11.7 mg/kg.

And the toxicity reactions ([4]; toxicity dosages)?
Its toxicity reactions is “paroxysmal restlessness, and foreleg tic”.

And the toxicity reactions ([5]; intraperitoneal, toxicity dosage)?
The toxicity reactions was “looked suppressive and immobile lying on stomach in cage, obvious suppression of respiration and showed convulsions before death”.

What about the LD50 ([5]; rat, in vivo, ip, intraperitoneal injection, read-out: LD50 (95 % confidence limit)) of the same compound?
Its LD50 is 16.5 mg/kg.

What about the “toxic reaction and electrocardiography” value ([6]; 2 mg/kg sc, two monkeys) of the same compound?
The value was “No toxic reaction and no effect on electrocardiography were observed”.

What about the electrocardiography examination ([6]; 3 mg/kg sc) of the same compound?
Its electrocardiography examination is “T wave had elevation, T wave and P wave fused, and R wave became smaller and notching”.

And the toxic reactions ([6]; 3 mg/kg sc, 30 minutes after injection)?
Its toxic reactions is “restlessness, slobbering, increased swallowing, drooping eyelids, and rigidity of leg muscles”.

What about the “convulsion and death of one monkey” value ([6]; 3 mg/kg sc, from 45 minutes) of the same compound?
Its value is “The convulsion still continued until death after 1 hr”.

What about the “duration of toxic reaction in the other monkey” value ([6]; 3 mg/kg sc, no convulsion) of the same compound?
Its value is 2 h.

And the “electrocardiography examination next day” value ([6]; 3 mg/kg sc, surviving monkey)?
The value was “normal”.

What about the electrocardiography examination [7] of the same compound?
Its electrocardiography examination is “No obvious change”.

What about the “hepatic and renal function and histological and pathological examination of viscera” value [7] of the same compound?
Its value is “No change was observed”.

And the “weight increase compared to control” value [7]?
Its value is “inhibited weight increase at different levels”.

What about the “weight increase compared to control” value [8] of the same compound?
The value was “a little suppressed”.

And the “Histological and pathological examinations” value [9, 13]?
The value was “stimulating reaction, except a little edema and hydrodenaturation in the liver and increasing cerebral colloid cells”.

And the electrocardiographic examination [9, 13]?
The electrocardiographic examination was “No obvious change”.

What about the “toxic reaction during administration” value [9, 13] of the same compound?
Its value is “No toxic reaction”.

And the MTD ([9]; rhesus monkey, in vivo, monkey, sc twice a day, escalated from 0.1 mg/kg within 50 days, read-out: maximum tolerance dosage / highest tolerated dosage)?
The MTD was 2 mg/kg.

What about the “recovery of cocaine-treated mice” value ([10]; mouse, in vivo) of the same compound?
The value was “recovered to normal”.

What about the “effect on withdrawal symptoms of morphine-dependent monkeys” value ([11]; in vivo) of the same compound?
Its value is “could not relieve or weaken the above withdrawal symptoms”.

And the substitute for morphine ([11]; in vivo, sc, 2 mg/kg)?
Its substitute for morphine is “does not act as a substitute for morphine”.

What does the source list for `CN1CC[C@]23c4c5ccc(O)c4O[C@H]2[C@@H](O)C=C[C@H]3[C@H]1C5.Cl` [Morphine, morphine hydrochloride, reference compound]?
jumping times of each mouse (mice [2]; allyl-dromaran 10 mg/kg ip, 20 days: morphine 80 mg/kg (total 1600), lappaconitine 8.0 mg/kg (total 160)): 34; jumping times of each mouse (mice [3]; nalorphine 50 mg/kg, 2 days: morphine initial 2.5 mg/kg (total 157.5), lappaconitine initial 3.5 mg/kg (total 35)): 9; average weight loss per rat (Morphine-dependent rats; 24 hours after discontinuing morphine (25 mg/kg sc twice a day, 12 weeks)): 25 g; behaviour of morphine-withdrawn rats after injection (Morphine-dependent rats; morphine hydrochloride 25 mg/kg sc or lappaconitine hydrobromide 8 mg/kg sc): turned to being excited from being suppressive, moved increasingly, frequently took food and water; weight change of morphine-withdrawn rats after injection (Morphine-dependent rats; within 8 hours, morphine hydrochloride 25 mg/kg sc or lappaconitine hydrobromide 8 mg/kg sc): the weight increased to the level shown very quickly before stopping injection of morphine; Withdrawal Syndrome, Nalorphine 0.5 mg/kg sc ([11]; Table 5, per monkey (No. 7, 8) and day): +; dependence in monkeys ([11]; sc twice a day until the 30th day): showed dependence on morphine; effect on withdrawal symptoms of morphine-dependent monkeys ([11]; sc, lappaconitine 2 mg/kg, 18 hours after stopping morphine): obviously reduced or disappeared

Which “abnormal signs during injection of cocaine” value ([10]; 10 mg/kg sc twice a day, 7 days) does the source give for `COC(=O)[C@H]1[C@@H](OC(=O)c2ccccc2)C[C@@H]2CC[C@H]1N2C` [cocaine, reference compound] here?
The value was “anorexia, pilo-erection, and frequent walking with holding tail, and the like”.

Which results are given for `CCN1CC2(O)CCC(OC)C34C1C(CC23)C1(O)CC(OC)C2CC4C1(O)C2OC` (stereo not shown) [Lappaconine hydrobromide, lappaconine hydrobromide]?
Jumping Mice/Survived Mice, Day 1 after stopping drug (Morphine-dependent Mice; 5 mg/g (so in the source) sc): 0/10; Jumping Mice/Survived Mice, Day 4 after stopping administration (Morphine-dependent Mice; 5 mg/g (so in the source) sc): 0/10; Jumping Mice/Survived Mice, Day 5 of treatment (Morphine-dependent Mice; 5 mg/g (so in the source) sc): 0/10

What does the source list for `CCN1CC2(OC(=O)c3ccccc3NC(C)=O)CCC(OC)C34C1C(CC23)C1(O)CC(OC)C2CC4C1(O)C2OC` (stereo not shown) [Lappaconitine hydrobromide, lappaconitine hydrobromide]?
behaviour after administration (mice [2]; mouse, in vivo): looked quiet and immobile and showed no pilo-erection reaction; jumping reaction after injection of allyl dromaran (mice [2]; mouse, in vivo): no jumping reaction; drug dependence (conclusion of Table 4) (mice [3]; mouse jumping test): does not cause drug dependence; Jumping Mice/Survived Mice, Day 1 after stopping drug (Morphine-dependent Mice; [14]): 0/10; Jumping Mice/Survived Mice, Day 4 after stopping administration (Morphine-dependent Mice; [14]): 0/10; Jumping Mice/Survived Mice, Day 5 of treatment (Morphine-dependent Mice; [14]): 1/10; number of jumps of the one jumping mouse (Morphine-dependent Mice; footnote *^3, 0.45 mg/g (so in the source) sc group, Day 5): five

For `C=CCN1CC[C@]23c4c5ccc(O)c4O[C@H]2[C@@H](O)C=C[C@H]3[C@H]1C5` [nalorphine], which “effect of nalorphine on withdrawal symptoms” value ([11]; in vivo, sc) is on record?
Its value is “the above symptoms would be more obvious”.

Reference: patent US5547956A, “Pharmaceutical composition and the method for treating drug addicts' withdrawal syndromes and detoxifying addicts by the same” (priority 1991, dated 1996)
